Results as given in patent US20100168102A9, “Amide Derivatives as Kinase Inhibitors” (Devgen NV, priority 2005, published 2010).
Like-named read-outs stand apart in the source and are kept apart here.

Legend:
PKC epsilon = biological target: T1, PKC epsilon (Homo sapiens, UniProt Q02156); experiment: Biochemical assay for PKC epsilon (fluorescence polarization, Protein Kinase C Assay Kit, Red); conditions: read-out: IC50 μM PKCε
T1 construct: purchased Invitrogen P2282
T1 sequence (Q02156 1-737): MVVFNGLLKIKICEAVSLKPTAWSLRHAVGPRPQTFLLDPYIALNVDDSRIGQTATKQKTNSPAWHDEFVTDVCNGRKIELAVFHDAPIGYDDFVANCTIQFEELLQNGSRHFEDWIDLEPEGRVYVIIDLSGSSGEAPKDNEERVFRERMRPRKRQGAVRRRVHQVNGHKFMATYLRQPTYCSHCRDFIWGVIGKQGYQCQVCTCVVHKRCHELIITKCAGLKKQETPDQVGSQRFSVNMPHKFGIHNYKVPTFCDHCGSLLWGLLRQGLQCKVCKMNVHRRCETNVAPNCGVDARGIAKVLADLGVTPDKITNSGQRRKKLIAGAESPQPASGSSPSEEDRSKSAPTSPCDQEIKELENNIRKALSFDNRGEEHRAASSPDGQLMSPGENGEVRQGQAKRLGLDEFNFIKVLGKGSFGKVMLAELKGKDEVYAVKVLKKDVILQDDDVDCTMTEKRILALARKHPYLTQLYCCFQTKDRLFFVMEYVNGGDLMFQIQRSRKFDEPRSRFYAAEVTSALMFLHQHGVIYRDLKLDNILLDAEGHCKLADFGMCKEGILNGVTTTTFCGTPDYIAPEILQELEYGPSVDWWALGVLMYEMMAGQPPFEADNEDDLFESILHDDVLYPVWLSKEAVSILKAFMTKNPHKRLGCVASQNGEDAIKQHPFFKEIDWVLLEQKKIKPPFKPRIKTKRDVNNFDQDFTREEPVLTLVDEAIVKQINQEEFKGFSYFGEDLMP
How it was run: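 Read-out was fluorescence-polarization competition between phosphorylated substrate and a rhodamine PKC tracer for an anti-phosphoserine antibody, added with EDTA stop after an 80 min room-temperature kinase reaction with ATP and protein substrate (Mg2+/Ca2+ buffer). Enzyme (10 ng/ml final) was preincubated with compound for 30 min.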

human ROCKα/ROCKII mix = biological target: T2, human ROCKα/ROCKII mix (Homo sapiens, UniProt O75116); experiment: Biochemical assay for ROCK (fluorescence polarization, ROCK IMAP Kit)
T2 construct: purchased Upstate Biotechnology 14-451

[1] = Table 2, compounds of Formula XIII

T2 sequence (O75116 11-552 limits assumed): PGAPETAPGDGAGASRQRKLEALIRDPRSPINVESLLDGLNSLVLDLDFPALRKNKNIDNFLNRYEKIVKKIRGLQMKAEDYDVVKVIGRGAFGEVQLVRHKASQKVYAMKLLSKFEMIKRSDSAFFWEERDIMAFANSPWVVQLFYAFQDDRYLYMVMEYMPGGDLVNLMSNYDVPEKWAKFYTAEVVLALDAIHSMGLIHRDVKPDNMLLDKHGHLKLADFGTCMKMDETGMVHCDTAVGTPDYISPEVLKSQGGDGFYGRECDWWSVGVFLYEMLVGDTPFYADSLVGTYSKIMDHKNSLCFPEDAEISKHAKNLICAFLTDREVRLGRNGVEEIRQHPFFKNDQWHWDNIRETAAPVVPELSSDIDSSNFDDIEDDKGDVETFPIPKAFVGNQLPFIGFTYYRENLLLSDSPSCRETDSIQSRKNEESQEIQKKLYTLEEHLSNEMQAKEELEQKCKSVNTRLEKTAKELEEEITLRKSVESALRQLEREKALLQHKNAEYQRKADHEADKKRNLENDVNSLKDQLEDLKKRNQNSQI

Row | IC50 (PKC epsilon) [µM] | IC50 (human ROCKα/ROCKII mix) [µM] | IC50 (PKC epsilon; [1]) [µM] | IC50 (human ROCKα/ROCKII mix; [1]) [µM] | Structure (SMILES)
1 | – | – | 0.5 to 5 | 0.5 to 5 | CC(C)CCC(=O)NCC(N)c1ccc(C(=O)Nc2ccncc2)cc1 (centres unmarked) [Compound 36, 4-[1-Amino-2-(4-methyl-pentanoylamino)-ethyl]-N-pyridin-4-yl-benzamide]
2 | – | – | 0.5 to 5 | 0.5 to 5 | NC(CNC(=O)C1CC1)c1ccc(C(=O)Nc2ccncc2)cc1 (centres unmarked) [Compound 39, 4-[1-Amino-2-(cyclopropanecarbonyl-amino)-ethyl]-N-pyridin-4-yl-benzamide]
3 | – | – | 0.5 to 5 | 0.5 to 5 | CC1CC1C(=O)NCC(N)c1ccc(C(=O)Nc2ccncc2)cc1 (centres unmarked) [Compound 40, 4-{1-Amino-2-[(2-methyl-cyclopropanecarbonyl)-amino]-ethyl}-N-pyridin-4-yl-benzamide]
4 | – | – | 0.5 to 5 | 0.5 to 5 | NC(CNC(=O)C1CCC1)c1ccc(C(=O)Nc2ccncc2)cc1 (centres unmarked) [Compound 41, 4-[1-Amino-2-(cyclobutanecarbonyl-amino)-ethyl]-N-pyridin-4-yl-benzamide]
5 | – | – | 0.5 to 5 | 0.5 to 5 | NC(CNC(=O)C1CCCC1)c1ccc(C(=O)Nc2ccncc2)cc1 (centres unmarked) [Compound 42, 4-[1-Amino-2-(cyclopentanecarbonyl-amino)-ethyl]-N-pyridin-4-yl-benzamide]
6 | – | – | 5 to 50 | 0.5 to 5 | NC(CNC(=O)C1CCCCC1)c1ccc(C(=O)Nc2ccncc2)cc1 (centres unmarked) [Compound 43, 4-[1-Amino-2-(cyclohexanecarbonyl-amino)-ethyl]-N-pyridin-4-yl-benzamide]
7 | – | – | 0.5 to 5 | 0.5 to 5 | NC(CNC(=O)CC1CC1)c1ccc(C(=O)Nc2ccncc2)cc1 (centres unmarked) [Compound 46, 4-[1-Amino-2-(2-cycopropyl-acetylamino)-ethyl]-N-pyridin-4-yl-benzamide]
8 | – | – | 0.5 to 5 | 0.5 to 5 | NC(CNC(=O)CC1CCCC1)c1ccc(C(=O)Nc2ccncc2)cc1 (centres unmarked) [Compound 47, 4-[1-Amino-2-(2-cyclopentyl-acetylamino)-ethyl]-N-pyridin-4-yl-benzamide]
9 | – | – | 0.5 to 5 | 0.05 to 0.5 | NC(CNC(=O)CC1C=CCC1)c1ccc(C(=O)Nc2ccncc2)cc1 (centres unmarked) [Compound 48, 4-[1-Amino-2-(2-cyclopent-2-enyl-acetylamino)-ethyl]-N-pyridin-4-yl-benzamide]
10 | – | – | 0.5 to 5 | 0.05 to 0.5 | NC(CNC(=O)CC1Cc2ccccc2C1)c1ccc(C(=O)Nc2ccncc2)cc1 (centres unmarked) [Compound 49, 4-[1-Amino-2-(2-indan-2-yl-acetylamino)-ethyl]-N-pyridin-4-yl-benzamide]
11 | – | – | 0.5 to 5 | 0.5 to 5 | NC(CNC(=O)CC1CCCCC1)c1ccc(C(=O)Nc2ccncc2)cc1 (centres unmarked) [Compound 50, 4-[1-Amino-2-(2-cyclohexyl-acetylamino)-ethyl]-N-pyridin-4-yl-benzamide]

The remaining lines, values behind:

Row | Structure (SMILES) | IC50 (PKC epsilon) [µM] | IC50 (human ROCKα/ROCKII mix) [µM] | IC50 (PKC epsilon; [1]) [µM] | IC50 (human ROCKα/ROCKII mix; [1]) [µM]
12 | NC(CNC(=S)Nc1ccccc1)c1ccc(C(=O)Nc2ccncc2)cc1 (centres unmarked) [Compound 11, 4-[1-amino-2-(3-phenyl-thioureido)-ethyl]-N-pyridin-4-yl-benzamide] | 0.5 to 5 | 0.05 to 0.5 | – | –
13 | Cc1ccccc1NC(=S)NCC(N)c1ccc(C(=O)Nc2ccncc2)cc1 (centres unmarked) [Compound 12, 4-[1-amino-2-(3-o-tolyl-thioureido)-ethyl]-N-pyridin-4-yl-benzamide] | 0.05 to 0.5 | 0.5 to 5 | – | –
14 | NC(CNC(=S)Nc1ccc(Cl)cc1)c1ccc(C(=O)Nc2ccncc2)cc1 (centres unmarked) [Compound 13, 4-{1-amino-2-[3-(4-chloro-phenyl)-thioureido]-ethyl}-N-pyridin-4-yl-benzamide] | 0.05 to 0.5 | 0.05 to 0.5 | – | –
15 | COc1ccc(NC(=S)NCC(N)c2ccc(C(=O)Nc3ccncc3)cc2)cc1 (centres unmarked) [Compound 14, 4-{1-amino-2-[3-(4-methoxy-phenyl)-thioureido]-ethyl}-N-pyridin-4-yl-benzamide] | 0.5 to 5 | 0.5 to 5 | – | –
16 | NC(CNC(=S)Nc1ccc(OC(F)(F)F)cc1)c1ccc(C(=O)Nc2ccncc2)cc1 (centres unmarked) [Compound 15, 4-{1-amino-2-[3-(4-trifluoromethoxy-phenyl)-thioureido]-ethyl}-N-pyridin-4-yl-benzamide] | 5 to 50 | 0.5 to 5 | – | –
17 | NC(CNC(=S)Nc1ccc(C(F)(F)F)cc1)c1ccc(C(=O)Nc2ccncc2)cc1 (centres unmarked) [Compound 16, 4-{1-amino-2-[3-(4-trifluoromethyl-phenyl)-thioureido]-ethyl}-N-pyridin-4-yl-benzamide] | 0.5 to 5 | 0.5 to 5 | – | –
18 | NC(CNC(=S)Nc1cccc2ccccc12)c1ccc(C(=O)Nc2ccncc2)cc1 (centres unmarked) [Compound 17, 4-[1-amino-2-(3-naphtalen-1-yl-thioureido)-ethyl]-N-pyridin-4-yl-benzamide] | 0.05 to 0.5 | 0.05 to 0.5 | – | –
19 | CC(C)(C)c1ccc(NC(=S)NCC(N)c2ccc(C(=O)Nc3ccncc3)cc2)cc1 (centres unmarked) [Compound 18, 4-{1-amino-2-[3-(4-tert-butyl-phenyl)-thioureido]-ethyl}-N-pyridin-4-yl-benzamide] | 5 to 50 | 0.5 to 5 | – | –
20 | NC(CNC(=O)Nc1ccccc1F)c1ccc(C(=O)Nc2ccncc2)cc1 (centres unmarked) [Compound 20, 4-{1-amino-2-[3-(2-fluoro-phenyl)-ureido]-ethyl}-N-pyridin-4-yl-benzamide] | 0.5 to 5 | 0.05 to 0.5 | – | –
21 | CN(C)c1ccc(NC(=O)NCC(N)c2ccc(C(=O)Nc3ccncc3)cc2)cc1 (centres unmarked) [Compound 21, 4-{1-amino-2-[3-(4-dimethylamino-phenyl)-ureido]-ethyl}-N-pyridin-4-yl-benzamide] | 0.5 to 5 | 0.05 to 0.5 | – | –
22 | NC(CNC(=O)Nc1ccc(-c2ccccc2)cc1)c1ccc(C(=O)Nc2ccncc2)cc1 (centres unmarked) [Compound 22, 4-[1-amino-2-(3-biphenyl-4-yl-ureido)-ethyl]-N-pyridin-4-yl-benzamide] | 0.5 to 5 | 0.5 to 5 | – | –
23 | NC(CNC(=O)Nc1ccc2ccccc2c1)c1ccc(C(=O)Nc2ccncc2)cc1 (centres unmarked) [Compound 23, 4-[1-amino-2-(3-naphtalen-2-yl-ureido)-ethyl]-N-pyridin-4-yl-benzamide] | 0.5 to 5 | 0.05 to 0.5 | – | –
24 | CC(C)(C)c1ccc(NC(=O)NCC(N)c2ccc(C(=O)Nc3ccncc3)cc2)cc1 (centres unmarked) [Compound 24, 4-{1-amino-2-[3-(4-tert-butyl-phenyl)-ureido]-ethyl}-N-pyridin-4-yl-benzamide] | 5 to 50 | 0.5 to 5 | – | –
25 | Cc1ccccc1NC(=O)NCC(N)c1ccc(C(=O)Nc2ccncc2)cc1 (centres unmarked) [Compound 25, 4-[1-amino-2-(3-o-tolyl-ureido)-ethyl]-N-pyridin-4-yl-benzamide] | 0.5 to 5 | 0.05 to 0.5 | – | –
26 | Cc1cc(Cl)ccc1NC(=O)NCC(N)c1ccc(C(=O)Nc2ccncc2)cc1 (centres unmarked) [Compound 26, 4-{1-amino-2-[3-(4-chloro-2-methyl-phenyl)-ureido]-ethyl}-N-pyridin-4-yl-benzamide] | 0.05 to 0.5 | 0.05 to 0.5 | – | –
27 | NC(CNC(=O)Nc1cccc2ccccc12)c1ccc(C(=O)Nc2ccncc2)cc1 (centres unmarked) [Compound 28, 4-[1-amino-2-(3-naphtalen-1-yl-ureido)-ethyl]-N-pyridin-4-yl-benzamide] | 0.5 to 5 | 0.05 to 0.5 | – | –
28 | COc1cccc(NC(=O)NCC(N)c2ccc(C(=O)Nc3ccncc3)cc2)c1 (centres unmarked) [Compound 29, 4-{1-amino-2-[3-(3-methoxy-phenyl)-ureido]-ethyl}-N-pyridin-4-yl-benzamide] | 0.5 to 5 | 0.05 to 0.5 | – | –
29 | COc1ccc(NC(=O)NCC(N)c2ccc(C(=O)Nc3ccncc3)cc2)cc1 (centres unmarked) [Compound 30, 4-{1-amino-2-[3-(4-methoxy-phenyl)-ureido]-ethyl}-N-pyridin-4-yl-benzamide] | 0.5 to 5 | 0.05 to 0.5 | – | –
30 | CC(=O)NCC(N)c1ccc(C(=O)Nc2ccncc2)cc1 (centres unmarked) [Compound 31, 4-(2-Acetylamino-1-amino-ethyl)-N-pyridin-4-yl-benzamide] | – | – | 5 to 50 | 0.5 to 5
31 | CCCC(=O)NCC(N)c1ccc(C(=O)Nc2ccncc2)cc1 (centres unmarked) [Compound 32, 4-(1-Amino-2-butyrylamino-ethyl)-N-pyridin-4-y-benzamide] | – | – | 0.5 to 5 | 0.5 to 5
32 | CCCCC(=O)NCC(N)c1ccc(C(=O)Nc2ccncc2)cc1 (centres unmarked) [Compound 33, 4-(1-Amino-2-pentanoylamino-ethyl)-N-pyridin-4-yl-benzamide] | – | – | 0.5 to 5 | 0.5 to 5
33 | CC(C)CC(=O)NCC(N)c1ccc(C(=O)Nc2ccncc2)cc1 (centres unmarked) [Compound 34, 4-[1-Amino-2-(3-methyl-butyrylamino)-ethyl]-N-pyridin-4-yl-benzamide] | – | – | 0.5 to 5 | 0.5 to 5
34 | CCC(C)C(=O)NCC(N)c1ccc(C(=O)Nc2ccncc2)cc1 (centres unmarked) [Compound 35, 4-[1-Amino-2-(2-methyl-butyrylamino)-ethyl]-N-pyridin-4-yl-benzamide] | – | – | 0.5 to 5 | 0.5 to 5
